Legend:
NaV1.5 [1] = target: T1, NaV1.5 (Homo sapiens (Human), UniProt Q14524); test: cell-based
NaV1.6 = NaV1.6 (Homo sapiens (Human), UniProt Q9UQD0); test: Sodium Influx Assay (Flux), NaV1.6
NaV1.1 = NaV1.1 (Homo sapiens (Human), UniProt P35498); test: Sodium Influx Assay (Flux), NaV1.1; format: cell-based; conditions: Trex HEK293 cells, ANG2 dye; arithmetic mean
From the text: Sodium Influx Assay (In Vitro Assay)

NaV1.5 [2] = target: T1, NaV1.5; test: Electrophysiological Assay (EP, patch voltage clamp), NaV1.5; format: cell-based; conditions: HEK-293 cells, whole-cell patch clamp, inactivated state; arithmetic mean
Description: Sodium currents were measured using the patch clamp technique in the whole-cell configuration using either a PatchXpress automated voltage clamp or manually using an Axopatch 200B (Axon Instruments) or Model 2400 (A-M systems) amplifier. […] In some studies, the external sodium was reduced by equimolar replacement with choline. […] All recordings were performed at ambient temperature in a bath chamber with a volume of 150 μL. Control sodium currents were measured in 0.5% DMSO. Controls and representative compounds of the invention were applied to the recording chamber through a 4-pinch or 8-pinch valve bath perfusion system manufactured by ALA Scientific Instruments.
Series resistance compensation was applied (60-80%). […] All statistics in this study are given as mean±SD.
The membrane potential was maintained at a voltage where inactivation of the channel is complete. The voltage is then stepped back to a very negative (Vhold=−150 mV) voltage for 20 ms and then a test pulse is applied to quantify the compound block. […] The percent decrease in sodium current following wash-on of compound was taken as the percent block of sodium channels.

T1 sequence (Q14524 other isoform, or with tags, fused parts or gaps): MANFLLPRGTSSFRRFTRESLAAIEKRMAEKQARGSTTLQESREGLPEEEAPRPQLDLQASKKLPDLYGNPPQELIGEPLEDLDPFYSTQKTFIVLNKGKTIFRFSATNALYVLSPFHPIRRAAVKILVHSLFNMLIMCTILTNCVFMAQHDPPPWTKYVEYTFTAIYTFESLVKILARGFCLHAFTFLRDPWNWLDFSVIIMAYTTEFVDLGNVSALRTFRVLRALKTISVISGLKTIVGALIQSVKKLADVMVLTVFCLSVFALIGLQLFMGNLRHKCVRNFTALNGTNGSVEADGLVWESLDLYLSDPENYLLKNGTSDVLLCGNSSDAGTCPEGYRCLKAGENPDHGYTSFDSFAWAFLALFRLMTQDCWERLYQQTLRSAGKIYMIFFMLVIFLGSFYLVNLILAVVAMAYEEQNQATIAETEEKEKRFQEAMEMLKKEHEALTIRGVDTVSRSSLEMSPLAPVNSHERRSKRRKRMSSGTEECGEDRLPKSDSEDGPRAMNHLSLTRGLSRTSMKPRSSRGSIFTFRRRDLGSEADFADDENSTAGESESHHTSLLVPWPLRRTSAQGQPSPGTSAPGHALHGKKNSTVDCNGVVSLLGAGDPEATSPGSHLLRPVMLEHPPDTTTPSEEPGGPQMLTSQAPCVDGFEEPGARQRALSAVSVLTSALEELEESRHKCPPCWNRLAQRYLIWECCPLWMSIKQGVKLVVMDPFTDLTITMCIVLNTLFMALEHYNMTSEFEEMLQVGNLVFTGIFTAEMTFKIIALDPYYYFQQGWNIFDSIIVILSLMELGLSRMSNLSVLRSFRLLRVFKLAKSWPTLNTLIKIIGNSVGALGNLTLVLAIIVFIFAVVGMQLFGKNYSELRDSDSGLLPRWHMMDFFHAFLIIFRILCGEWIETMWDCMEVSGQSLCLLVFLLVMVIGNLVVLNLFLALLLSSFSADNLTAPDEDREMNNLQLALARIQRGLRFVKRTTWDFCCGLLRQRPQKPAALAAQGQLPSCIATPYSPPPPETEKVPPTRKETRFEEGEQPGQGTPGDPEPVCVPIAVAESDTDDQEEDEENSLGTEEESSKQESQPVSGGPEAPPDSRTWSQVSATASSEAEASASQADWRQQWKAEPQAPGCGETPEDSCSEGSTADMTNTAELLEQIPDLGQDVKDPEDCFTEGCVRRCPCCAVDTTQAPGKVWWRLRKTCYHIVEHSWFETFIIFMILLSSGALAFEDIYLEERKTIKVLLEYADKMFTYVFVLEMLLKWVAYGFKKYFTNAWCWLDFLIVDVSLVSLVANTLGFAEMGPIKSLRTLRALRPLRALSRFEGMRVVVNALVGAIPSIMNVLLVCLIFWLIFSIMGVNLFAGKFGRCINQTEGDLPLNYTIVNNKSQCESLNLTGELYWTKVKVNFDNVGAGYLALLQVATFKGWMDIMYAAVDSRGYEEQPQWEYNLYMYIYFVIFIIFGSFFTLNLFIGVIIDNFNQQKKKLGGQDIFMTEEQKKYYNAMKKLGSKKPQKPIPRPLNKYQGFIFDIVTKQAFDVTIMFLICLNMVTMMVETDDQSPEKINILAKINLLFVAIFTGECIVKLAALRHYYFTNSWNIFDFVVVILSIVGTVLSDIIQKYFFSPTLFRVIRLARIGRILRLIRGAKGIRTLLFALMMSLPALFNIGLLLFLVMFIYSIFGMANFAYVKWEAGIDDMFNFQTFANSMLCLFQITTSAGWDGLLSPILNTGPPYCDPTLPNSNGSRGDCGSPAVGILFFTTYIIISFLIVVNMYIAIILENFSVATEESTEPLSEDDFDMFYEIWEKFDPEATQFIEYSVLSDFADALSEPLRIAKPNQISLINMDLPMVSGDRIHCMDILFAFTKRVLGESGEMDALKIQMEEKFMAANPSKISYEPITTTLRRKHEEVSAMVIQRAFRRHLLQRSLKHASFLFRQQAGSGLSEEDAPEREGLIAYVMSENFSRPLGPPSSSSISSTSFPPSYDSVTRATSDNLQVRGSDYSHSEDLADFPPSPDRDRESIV

| Structure (SMILES) | IC50 (NaV1.5 [1]) [µM] | IC50 (NaV1.6) [µM] | IC50 (NaV1.1) [µM] | IC50 (NaV1.5 [2]) [µM] |
| --- | --- | --- | --- | --- |
| C[C@@H]1[C@H](N(C)c2cc(F)c(S(=O)(=O)Nc3cscn3)cc2Cl)CCN1Cc1ccccc1 (racemic) [Example 309, rac-4-(((2R,3R)-1-benzyl-2-methylpyrrolidin-3-yl)(methyl)amino)-5-chloro-2-fluoro-N-(thiazol-4-yl)benzenesulfonamide] | 7.35 | 6.86 | 8.44 | – |
| Cc1c(N(C)[C@H]2CCN(Cc3ccccc3)C2)cc(F)c(S(=O)(=O)Nc2cscn2)c1F [Example 103, (S)-4-((1-benzylpyrrolidin-3-yl)(methyl)amino)-2,6-difluoro-3-methyl-N-(thiazol-4-yl)benzenesulfonamide 2,2,2-trifluoroacetate] | – | – | – | > 30 |

Reference: patent US11299490B2, “Benzenesulfonamide compounds and their use as therapeutic agents” (Xenon Pharmaceuticals Inc., priority 2016, dated 2022)
